# Columns and labels:
# Assay type in all cases: cell-based, human
# [1] = tested on: FAS phosphorylation in PPC-1 cell line; test: Effect of okadaic acid on FAS phosphorylation in PPC-1 cells (FIG. 7A); details: brief treatment with 100 nM okadaic acid; PPC-1 prostate cancer cell line
# Source text: (§1) The relationship between FAS phosphorylation and cancer was investigated with a panel of the following human immortalized non-transformed cell lines: IMR-90 fetal lung, hPS human prostate and human cancer cell lines: HCT-116 colon, PPC-1 prostate, and SKBr3 breast. FAS enzyme levels (adjusted to total cellular protein) were quantitated by immunoblot and normalized to IMR-90. Both IMR-90 and hPS non-transformed cell lines had relatively low levels of FAS expression compared to the cancer cell lines, which ranged from 4.3 to 22 fold elevations compared to IMR-90 cells. The high level of FAS expression in SKBr3 cells is consistent with the observation that 28% of its cytosolic protein is FAS (Thompson et al., Biochem. Biophys Acta, 662: 125-130 (1981)).
# (§2) Because the FAS expression levels in this panel of cells is consistent with observations made in vivo, the possibility of differential FAS phosphorylation in these cells was investigated. […] No immunoreactivity was detected with an anti-phosphotyrosine or an anti-phosphoserine antibody, although additional antibodies and FAS proteins were not tested. Additional human cancer cell lines, such as LnCAP, OVCAR-3, SKOV3 (ovary), RKO (colon), H460, LX7 (lung), CAPAN-1, and PANC-1 (pancreas) can also be assessed for differential FAS phosphorylation as described above. […]
# total cellular FAS = test: Effect of okadaic acid treatment on total cellular FAS (FIG. 7B); details: cell line not stated
# Source text: FIGS. 7A and 7B, illustrates that phosphorylated FAS increases with okadaic acid treatment (part A) while total FAS protein is reduced (part B).
# The effect of okadaic acid, a protein phosphatase 2A inhibitor, in FAS phosphorylation was studied.
# [2] = tested on: FAS phosphorylation in HCT-116 cell line; test: Effect of okadaic acid on FAS phosphorylation in HCT-116 cells (FIG. 7A); details: brief treatment with 100 nM okadaic acid; HCT-116 colon cancer cell line
# Source text: as §1, §2
smiles,measurement,setting,value
C=C1[C@@H](O)[C@@H]2O[C@]3(CC[C@H](/C=C/[C@@H](C)[C@@H]4CC(C)=C[C@@]5(O[C@H](C[C@@](C)(O)C(=O)O)CC[C@H]5O)O4)O3)CC[C@H]2O[C@@H]1[C@@H](O)C[C@H](C)[C@H]1O[C@@]2(CCCCO2)CC[C@H]1C [okadaic acid],ratio of phosphorylated FAS to total FAS,[1],increases substantially
same,total FAS protein,total cellular FAS,reduced
same,ratio of phosphorylated FAS to total FAS,[2],increases substantially
